Data published in patent US20120156185A1, “NUTRITIONAL COMPOSITIONS COMPRISING CITRUS FIBERS” (HERBAMED LTD., priority 2009, published 2012).
Where “and” joins values, the source holds several entries; their conditions need not be identical. Equal entries are not always repeated.

Test: Oxygen radical absorbance capacity (ORAC) assay
Protocol: ORAC assay for fresh orange crush and dry flake extracts was carried out following the modified procedure of the method previously described by Prior et al (Prior R L. et al. 2003. J Agric Food Chem 5, 3273-3279). This assay measures the ability of antioxidant components in test materials to inhibit the decline in disodium fluorescein (FL) fluorescence that is induced by the peroxyl radical generator 2′,2′-Azobis (2-amidinopropane) dihydrochloride (AAPH). The reaction was obtained on fluorescent plate reader (Synergy HT, Bio-Tek Instruments, Winooski, Vt., USA). The mixture contained in the final assay mixture 200 μL of total volume, FL, 120 μL, […] and AAPH, 60 μL 32 mM final concentration. All reagents were prepared with 75 mM phosphate buffer, pH 7.4. FL, phosphate buffer and samples were pre-incubated at 37° C. for 15 min. The reaction was started by the addition of AAPH. Fluorescence was measured and recorded every 1.5 min at excitation length of 485 nm and emission length of 535 nm, until the fluorescence of the last reading declined to a value of less than or equal to 5% of the first reading. Phosphate buffer was used as a blank and 2.5-40 μM trolox were used as positive control standards. The final ORAC values were calculated by using a regression equation between the trolox concentration and the net area under the FL decay curve and were expressed as trolox equivalents (TE) as μmole per 100 g of fresh weight (FW) or dry weight (DW).
In both compounds the measured inhibition time was directly proportional to the concentration of the antioxidant. In the tasted concentration range 2.5, 5.0, 10.0 μM of trolox the Tinh were 14.6, 20.9, and 25.5 respectively. For comparison Tinh for 2.5, 5.0, 10.0 μM of hesperidin were 26.8, 45.0 and 62.5 min respectively. […] In ORAC assay Tinh measures the ability of antioxidant components in test materials to inhibit the decline in disodium fluorescein (FL) fluorescence that is induced by the peroxyl radical generator 2′,2′-Azobis (2-amidinopropane) dihydrochloride (AAPH). Tinh for 10 μM of hesperidin and 10 μM of trolox were 62.5 and 23.5 min respectively. […] Higher correlation was observed between Hesperidin concentration and its antioxidant capacity.

## Cc1c(C)c2c(c(C)c1O)CCC(C)(C(=O)O)O2 (stereo not drawn) [trolox, 6-hydroxy-2,5,7,8,-tetramethylchroman-2-carboxylic acid]
2.5 μM
  Tinh (inhibition time, antioxidant capacity): 14.6 min
5.0 μM
  Tinh (inhibition time, antioxidant capacity): 20.9 min
10 μM
  Tinh (inhibition time, antioxidant capacity): 25.5 min and 23.5 min

## COc1ccc([C@@H]2CC(=O)c3c(O)cc(O[C@@H]4O[C@H](CO[C@@H]5O[C@@H](C)[C@H](O)[C@@H](O)[C@H]5O)[C@@H](O)[C@H](O)[C@H]4O)cc3O2)cc1O [hesperidin]
2.5 μM
  Tinh (inhibition time, antioxidant capacity): 26.8 min
5.0 μM
  Tinh (inhibition time, antioxidant capacity): 45.0 min
10 μM
  Tinh (inhibition time, antioxidant capacity): 62.5 min
